Assay results reported in the kinase profiling compilation of Christmann-Franck et al. (2016).

What was measured:
Experiment in all cases: radiometric filter-binding kinase assay, Kinase HotSpot
Settings in all cases: compound 0.5 µM; ATP 10 µM
ACVR1 (human) = ACVR1 (human) (UniProt Q04771)
MERTK (human) = MERTK (human) (UniProt Q12866)
MAP3K5 (human) = MAP3K5 (human) (UniProt Q99683)
NUAK1 (human) = NUAK1 (human) (UniProt O60285)
FER (human) = FER (human) (UniProt P16591)
CDC42BPB (human) = CDC42BPB (human) (UniProt Q9Y5S2)
MAPK14 (human) = MAPK14 (human) (UniProt Q16539)
DAPK1 (human) = DAPK1 (human) (UniProt P53355)
PRKD3 (human) = PRKD3 (human) (UniProt O94806)
CDK5 CDK5R1 p35 (human) = CDK5 CDK5R1 p35 (human) (UniProt Q00535+Q15078)
LCK (human) = LCK (human) (UniProt P06239)
PIM1 (human) = PIM1 (human) (UniProt P11309)
PASK (human) = PASK (human) (UniProt Q96RG2)
KIT (human) = KIT (human) (UniProt P10721)
RPS6KB2 (human) = RPS6KB2 (human) (UniProt Q9UBS0)
RPS6KA2 KD1 KD2 (human) = RPS6KA2 KD1 KD2 (human) (UniProt Q15349)
NEK4 (human) = NEK4 (human) (UniProt P51957)
PRKCB2 (human) = PRKCB2 (human) (UniProt P05771)
MAPKAPK2 (human) = MAPKAPK2 (human) (UniProt P49137)
DDR2 (human) = DDR2 (human) (UniProt Q16832)
EGFR (human) = EGFR (human) (UniProt P00533)
AURKB (human) = AURKB (human) (UniProt Q96GD4)
MAP3K3 (human) = MAP3K3 (human) (UniProt Q99759)
ERBB4 (human) = ERBB4 (human) (UniProt Q15303)
PAK6 (human) = PAK6 (human) (UniProt Q9NQU5)
CHUK (human) = CHUK (human) (UniProt O15111)
CLK2 (human) = CLK2 (human) (UniProt P49760)
CSNK1G1 (human) = CSNK1G1 (human) (UniProt Q9HCP0)
FGFR3 (human) = FGFR3 (human) (UniProt P22607)
PTK6 (human) = PTK6 (human) (UniProt Q13882)
FGFR2 (human) = FGFR2 (human) (UniProt P21802)
GSK3B (human) = GSK3B (human) (UniProt P49841)
SRPK1 (human) = SRPK1 (human) (UniProt Q96SB4)
PRKCD (human) = PRKCD (human) (UniProt Q05655)
TEK (human) = TEK (human) (UniProt Q02763)
BRAF (human) = BRAF (human) (UniProt P15056)

CSNK1G1 (human), sequence (Q9HCP0 whole entry, looked up): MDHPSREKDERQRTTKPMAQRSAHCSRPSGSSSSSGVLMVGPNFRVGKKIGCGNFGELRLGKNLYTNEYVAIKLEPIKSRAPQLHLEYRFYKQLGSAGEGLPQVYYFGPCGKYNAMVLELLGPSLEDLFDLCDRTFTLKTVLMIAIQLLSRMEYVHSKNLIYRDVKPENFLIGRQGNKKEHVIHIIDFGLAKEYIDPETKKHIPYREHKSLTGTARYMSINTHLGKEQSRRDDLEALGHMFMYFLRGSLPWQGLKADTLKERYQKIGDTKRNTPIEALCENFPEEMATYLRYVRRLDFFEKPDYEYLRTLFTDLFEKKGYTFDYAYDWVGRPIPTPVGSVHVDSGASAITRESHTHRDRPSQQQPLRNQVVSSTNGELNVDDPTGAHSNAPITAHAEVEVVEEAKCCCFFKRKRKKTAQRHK
NUAK1 (human), sequence (O60285 whole entry, looked up): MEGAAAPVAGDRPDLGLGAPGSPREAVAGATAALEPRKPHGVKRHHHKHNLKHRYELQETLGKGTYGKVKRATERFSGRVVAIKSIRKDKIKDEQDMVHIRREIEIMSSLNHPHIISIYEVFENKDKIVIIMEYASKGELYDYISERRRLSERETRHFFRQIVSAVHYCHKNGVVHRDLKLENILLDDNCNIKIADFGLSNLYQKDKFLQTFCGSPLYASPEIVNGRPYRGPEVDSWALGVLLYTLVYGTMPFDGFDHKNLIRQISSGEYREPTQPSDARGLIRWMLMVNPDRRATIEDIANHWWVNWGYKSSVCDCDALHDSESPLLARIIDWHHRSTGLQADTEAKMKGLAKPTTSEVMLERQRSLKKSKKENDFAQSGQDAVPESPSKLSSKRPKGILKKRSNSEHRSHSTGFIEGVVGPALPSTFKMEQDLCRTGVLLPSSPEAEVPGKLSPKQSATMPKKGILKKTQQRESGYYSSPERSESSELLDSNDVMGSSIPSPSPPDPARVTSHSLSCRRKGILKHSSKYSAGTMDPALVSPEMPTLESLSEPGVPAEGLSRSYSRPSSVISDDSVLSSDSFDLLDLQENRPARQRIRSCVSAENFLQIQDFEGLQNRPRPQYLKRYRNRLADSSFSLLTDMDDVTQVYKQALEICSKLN
FGFR3 (human), sequence (P22607 whole entry, looked up): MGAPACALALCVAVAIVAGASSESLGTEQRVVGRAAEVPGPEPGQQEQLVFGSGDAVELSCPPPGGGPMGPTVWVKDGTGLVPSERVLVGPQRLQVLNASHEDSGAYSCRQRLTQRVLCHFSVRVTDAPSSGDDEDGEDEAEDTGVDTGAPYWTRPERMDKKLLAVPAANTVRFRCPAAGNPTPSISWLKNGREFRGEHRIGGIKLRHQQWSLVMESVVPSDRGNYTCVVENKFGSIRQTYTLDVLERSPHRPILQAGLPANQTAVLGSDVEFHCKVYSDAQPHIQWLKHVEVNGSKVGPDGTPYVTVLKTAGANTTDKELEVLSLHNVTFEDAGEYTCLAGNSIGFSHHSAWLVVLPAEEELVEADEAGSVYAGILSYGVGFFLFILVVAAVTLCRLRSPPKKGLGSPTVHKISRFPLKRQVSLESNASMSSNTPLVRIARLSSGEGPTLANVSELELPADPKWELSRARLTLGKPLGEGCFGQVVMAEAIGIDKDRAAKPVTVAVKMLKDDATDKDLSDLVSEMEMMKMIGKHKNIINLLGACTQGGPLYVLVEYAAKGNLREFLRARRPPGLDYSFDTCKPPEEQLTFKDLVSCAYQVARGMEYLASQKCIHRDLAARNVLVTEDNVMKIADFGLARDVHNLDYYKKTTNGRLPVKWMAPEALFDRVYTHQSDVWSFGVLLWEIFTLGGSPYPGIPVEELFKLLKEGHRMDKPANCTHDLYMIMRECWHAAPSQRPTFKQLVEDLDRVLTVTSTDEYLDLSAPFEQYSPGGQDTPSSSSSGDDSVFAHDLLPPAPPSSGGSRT
SRPK1 (human), sequence (Q96SB4 whole entry, looked up): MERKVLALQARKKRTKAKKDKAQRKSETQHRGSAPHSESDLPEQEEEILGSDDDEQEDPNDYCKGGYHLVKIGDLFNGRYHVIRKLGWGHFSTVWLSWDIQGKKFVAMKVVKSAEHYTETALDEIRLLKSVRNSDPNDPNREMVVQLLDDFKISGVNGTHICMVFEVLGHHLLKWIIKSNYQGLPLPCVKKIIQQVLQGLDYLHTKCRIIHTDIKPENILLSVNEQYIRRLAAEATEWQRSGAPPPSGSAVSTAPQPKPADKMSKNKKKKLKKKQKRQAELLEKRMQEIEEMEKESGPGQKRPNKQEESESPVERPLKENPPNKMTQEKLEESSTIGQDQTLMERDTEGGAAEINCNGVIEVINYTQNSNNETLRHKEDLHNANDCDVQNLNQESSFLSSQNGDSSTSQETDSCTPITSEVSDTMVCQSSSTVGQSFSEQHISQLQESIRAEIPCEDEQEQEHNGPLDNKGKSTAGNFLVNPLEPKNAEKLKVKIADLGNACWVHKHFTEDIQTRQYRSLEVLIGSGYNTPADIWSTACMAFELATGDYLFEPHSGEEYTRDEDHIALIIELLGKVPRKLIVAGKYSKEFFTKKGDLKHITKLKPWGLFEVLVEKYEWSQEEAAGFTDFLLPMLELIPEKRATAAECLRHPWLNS
CHUK (human), sequence (O15111 whole entry, looked up): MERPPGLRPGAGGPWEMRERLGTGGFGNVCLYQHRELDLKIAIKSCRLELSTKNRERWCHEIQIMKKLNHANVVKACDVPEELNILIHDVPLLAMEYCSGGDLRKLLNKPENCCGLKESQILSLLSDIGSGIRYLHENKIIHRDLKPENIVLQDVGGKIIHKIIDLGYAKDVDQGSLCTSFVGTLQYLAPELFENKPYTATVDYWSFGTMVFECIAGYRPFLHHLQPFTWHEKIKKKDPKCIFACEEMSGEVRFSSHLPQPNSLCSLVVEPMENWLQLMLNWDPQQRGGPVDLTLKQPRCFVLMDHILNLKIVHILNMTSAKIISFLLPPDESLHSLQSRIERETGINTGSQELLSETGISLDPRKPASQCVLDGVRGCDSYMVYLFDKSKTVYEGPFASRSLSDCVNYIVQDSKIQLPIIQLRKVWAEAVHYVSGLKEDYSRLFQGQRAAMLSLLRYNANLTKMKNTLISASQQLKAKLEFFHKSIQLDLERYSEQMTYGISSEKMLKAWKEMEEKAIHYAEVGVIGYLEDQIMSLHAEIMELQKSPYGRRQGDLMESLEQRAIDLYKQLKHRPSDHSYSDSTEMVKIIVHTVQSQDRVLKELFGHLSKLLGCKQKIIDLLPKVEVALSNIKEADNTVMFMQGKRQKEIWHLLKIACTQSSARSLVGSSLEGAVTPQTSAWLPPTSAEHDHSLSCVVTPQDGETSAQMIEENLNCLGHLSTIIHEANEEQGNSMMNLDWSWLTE
DDR2 (human), sequence (Q16832 whole entry, looked up): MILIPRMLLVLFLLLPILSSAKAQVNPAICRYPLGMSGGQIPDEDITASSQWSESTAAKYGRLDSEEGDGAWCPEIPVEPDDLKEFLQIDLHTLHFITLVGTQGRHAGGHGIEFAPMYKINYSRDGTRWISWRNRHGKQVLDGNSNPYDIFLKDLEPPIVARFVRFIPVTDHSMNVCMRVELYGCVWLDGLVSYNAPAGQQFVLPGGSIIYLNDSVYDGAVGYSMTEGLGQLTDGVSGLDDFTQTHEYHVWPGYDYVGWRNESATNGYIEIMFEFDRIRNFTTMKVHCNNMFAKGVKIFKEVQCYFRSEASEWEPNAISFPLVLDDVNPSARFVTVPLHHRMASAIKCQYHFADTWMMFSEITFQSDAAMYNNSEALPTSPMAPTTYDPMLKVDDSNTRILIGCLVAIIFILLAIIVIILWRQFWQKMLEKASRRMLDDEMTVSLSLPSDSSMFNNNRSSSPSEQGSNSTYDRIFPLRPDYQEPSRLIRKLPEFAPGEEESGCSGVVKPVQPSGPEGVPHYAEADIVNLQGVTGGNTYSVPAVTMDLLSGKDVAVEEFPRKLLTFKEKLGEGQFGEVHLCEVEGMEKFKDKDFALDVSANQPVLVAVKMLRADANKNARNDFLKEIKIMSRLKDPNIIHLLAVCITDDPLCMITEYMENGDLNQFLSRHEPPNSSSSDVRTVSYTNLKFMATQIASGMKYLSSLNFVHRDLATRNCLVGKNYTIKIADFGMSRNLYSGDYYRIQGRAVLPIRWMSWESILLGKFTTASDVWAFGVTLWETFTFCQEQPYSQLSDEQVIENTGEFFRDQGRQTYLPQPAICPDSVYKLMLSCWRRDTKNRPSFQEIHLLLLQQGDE
PRKD3 (human), sequence (O94806 whole entry, looked up): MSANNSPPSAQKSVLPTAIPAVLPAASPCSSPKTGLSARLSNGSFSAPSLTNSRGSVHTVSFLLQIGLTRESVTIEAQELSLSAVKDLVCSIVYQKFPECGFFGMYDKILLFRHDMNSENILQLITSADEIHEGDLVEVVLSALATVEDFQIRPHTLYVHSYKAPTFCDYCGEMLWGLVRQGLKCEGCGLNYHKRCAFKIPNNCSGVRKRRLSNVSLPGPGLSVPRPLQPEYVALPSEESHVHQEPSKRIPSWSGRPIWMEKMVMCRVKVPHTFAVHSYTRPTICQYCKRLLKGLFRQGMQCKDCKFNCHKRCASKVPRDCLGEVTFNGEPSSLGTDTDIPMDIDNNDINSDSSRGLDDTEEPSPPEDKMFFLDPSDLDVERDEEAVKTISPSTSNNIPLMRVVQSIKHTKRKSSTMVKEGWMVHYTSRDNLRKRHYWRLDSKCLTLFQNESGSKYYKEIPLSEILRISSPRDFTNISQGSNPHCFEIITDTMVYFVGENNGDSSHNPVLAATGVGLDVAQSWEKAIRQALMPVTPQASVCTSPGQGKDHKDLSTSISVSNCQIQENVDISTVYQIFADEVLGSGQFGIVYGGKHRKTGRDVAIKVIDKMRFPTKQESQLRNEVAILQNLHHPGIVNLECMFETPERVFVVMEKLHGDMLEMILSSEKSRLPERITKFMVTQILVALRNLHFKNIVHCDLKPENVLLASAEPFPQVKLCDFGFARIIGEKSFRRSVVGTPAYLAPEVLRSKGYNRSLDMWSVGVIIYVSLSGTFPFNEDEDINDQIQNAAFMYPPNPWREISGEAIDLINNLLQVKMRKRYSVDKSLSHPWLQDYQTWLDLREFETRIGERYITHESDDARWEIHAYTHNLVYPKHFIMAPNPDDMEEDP

| SMILES | residual activity (ACVR1 (human)) [%] | residual activity (MERTK (human)) [%] | residual activity (MAP3K5 (human)) [%] | residual activity (NUAK1 (human)) [%] | residual activity (FER (human)) [%] | residual activity (MAPK14 (human)) [%] | residual activity (DAPK1 (human)) [%] | residual activity (PRKD3 (human)) [%] | residual activity (LCK (human)) [%] | residual activity (PIM1 (human)) [%] | residual activity (PASK (human)) [%] | residual activity (KIT (human)) [%] | residual activity (RPS6KB2 (human)) [%] | residual activity (RPS6KA2 KD1 KD2 (human)) [%] | residual activity (NEK4 (human)) [%] | residual activity (PRKCB2 (human)) [%] | residual activity (MAPKAPK2 (human)) [%] | residual activity (DDR2 (human)) [%] | residual activity (AURKB (human)) [%] | residual activity (MAP3K3 (human)) [%] | also measured |
| --- | --- | --- | --- | --- | --- | --- | --- | --- | --- | --- | --- | --- | --- | --- | --- | --- | --- | --- | --- | --- | --- |
| O=C(c1ccccc1)c1ccc(N2CCOCC2)cc1O | 107 | 94.5 | 97.8 | 94.9 | 94.2 | 96.3 | 92.5 | 96.1 | 101 | 101 | 94.3 | 96.2 | 100 | 102 | 97.7 | 99.2 | 102 | 103 | 95.5 | 97.8 | residual activity (CDC42BPB (human)): 90.9%; residual activity (CDK5 CDK5R1 p35 (human)): 97%; residual activity (EGFR (human)): 94.9%; residual activity (ERBB4 (human)): 102%; residual activity (PAK6 (human)): 93.6%; residual activity (CHUK (human)): 101%; residual activity (CLK2 (human)): 106%; residual activity (CSNK1G1 (human)): 105%; residual activity (FGFR3 (human)): 104%; residual activity (PTK6 (human)): 98.2%; residual activity (FGFR2 (human)): 99.1%; residual activity (GSK3B (human)): 118%; residual activity (SRPK1 (human)): 94.2%; residual activity (PRKCD (human)): 98.8% |
| CCCCc1c(-c2ccc(O)cc2)[nH]c2nccnc12 | 83.8 | 94.1 | 99.3 | 19.1 | 55.6 | 102 | 85.3 | 67.4 | 86.8 | 83.8 | 99.5 | 80.8 | 102 | 87.7 | 82.2 | 118 | 92.6 | 96 | 66.9 | 127 | residual activity (TEK (human)): 97%; residual activity (BRAF (human)): 99.3%; residual activity (ERBB4 (human)): 102%; residual activity (PAK6 (human)): 94.3%; residual activity (CHUK (human)): 77.6%; residual activity (CLK2 (human)): 76.4%; residual activity (CSNK1G1 (human)): 93.1%; residual activity (FGFR3 (human)): 80%; residual activity (PTK6 (human)): 29.7%; residual activity (FGFR2 (human)): 94.5%; residual activity (GSK3B (human)): 75.4%; residual activity (SRPK1 (human)): 101%; residual activity (PRKCD (human)): 102% |
